Experimental findings from patent publication US20080090847A1, “HETEROCYCLIC COMPOUNDS AND USES THEREOF AS D-ALANYL-D-ALANINE LIGASE INHIBITORS” (PLIVA D.D., priority 2001, published 2008) are described below.

Holding throughout (format): biochemical
Test [1] addresses E. coli ligase (D-Ala-D-Ala ligase) (Escherichia coli, UniProt P07862). Briefly: D-Ala-D-Ala ligase Ki determination (PK/LDH coupled assay), E. coli ligase. The text has this: (§1) Inhibition of D-Ala-D-Ala ligase can be assayed for using the pyruvate kinase/lactate dehydrogenase (PK/LDH) assay described in Example 2, and as described in the literature (e.g., in Sarthy et al., Anal. Biochem., 254:288-290, 1997). In the bacterial cell wall synthesis process, the ligase catalyzes the conversion of adenosine triphosphate (ATP) to adenosine diphosphate (ADP) concurrent with the ligation of two D-alanine residues to form D-alanyl-D-alanine. PK then regenerates ATP from the ADP thus created simultaneously with the conversion of phosphopyruvate to pyruvate. LDH catalyzes the reduction of pyruvate to lactate by converting NADH to NAD^+. By monitoring the production rate of NAD^+ (e.g., using UV/Vis spectroscopy), D-Ala-D-Ala ligase activity can be ascertained.
(§2) The protein sequence for the enzyme D-ala-D-ala ligase has been determined in a variety of different bacterial species using standard techniques in biochemistry (see Table 5). The protein sequence from any species can be overexpressed in an appropriate host organism such as E. coli using standard molecular biology techniques. The ligase enzyme can be harvested, purified, and used in the above described assay for the determination of inhibitory activity.
(§3) The synthetic analogs of Example 1 were dissolved in dimethylsulfoxide (DMSO) at a concentration of 100 mM on the day of screening, using a vortex mixer and sonication if necessary for dissolution. The solutions were kept at room temperature until screening was completed.
(§4) A 10 mM NADH (Sigma) stock solution was prepared freshly on the day of screening by dissolving 32 μmol NADH in 3.2 ml double-distilled water. The NADH solution was kept on ice. Stock solutions containing 50 mM phosphoenolpyruvate (PEP; Sigma), 500 μM HERMES, 30 mM adenosine triphosphate (ATP; Sigma), 200 mM D-alanine (Sigma), and 4× core buffer (i.e., 400 mM Hepes, 40 mM magnesium chloride, and 40 mM potassium chloride), were also stored on ice. A stock solution of pyruvate kinase/lactate dehydrogenase (PK/LDH) was also obtained from Sigma.
(§5) Table of Final concentrations are dependent on the type of screening:
(§6) For each set of test compounds, two 96-well plates were used: an inhibitor plate and an enzyme plate. The test compounds correspond to rows A-G of the plates. Adenosine (Sigma) dissolved in DMSO, used as a control, corresponds to row H of each plate.
(§7) The enzyme solution was allowed to equilibrate to 25° C.
(§8) Dilutions were prepared in the inhibitor plate as follows: 50 μl DMSO was added to each well of columns 1-11, rows A-G, of the inhibitor plate. 50 μl DMSO were added to each well of columns 1-11, row H. 100 μl of the 100 mM test solutions were added to column 12, rows A-G (i.e., the first compound in row A, the second compound in row B, and so on). 100 μl of a 100 mM Adenosine solution was added to column 12, row H.
(§9) 50 μl of the test solution was transferred from column 12 in each row to column 11 of the a same row, mixing the solution with the DMSO. 50 μl of solution was then transferred from column 11 in each row to column 10 in the same row, 50 μl from column 10 was transferred to column 9, and so on, down to column 2. No solution was transferred to column 1. Multichannel pipettors were used in making the serial dilution.
(§10) 120 μl of the enzyme solution was added to each well of the enzyme plate.
(§11) The substrate solutions were brought to 25° C.
(§12) The analogs and enzymes were then incubated at 25° C. Since the reactions were initiated in columns, the analog addition is also in columns. At t=0 minutes, 5 μl analog was transferred from each well of columns 1-4 of the inhibitor plate to the corresponding well of the enzyme plate. At t=4 minutes, 5 μl analog was transferred from each well of columns 5-8 of the inhibitor plate to the corresponding well of the enzyme plate. At t=8 minutes, 5 μl analog was transferred from each well of columns 9-12 of the inhibitor plate to the corresponding well of the enzyme plate. The inhibitor plate was then frozen. […]

Test [2] concerns the target H. Influenzae ligase (D-Ala-D-Ala ligase) (Haemophilus influenzae, UniProt P44405). The test can be described thus: D-Ala-D-Ala ligase Ki determination (PK/LDH coupled assay), H. influenzae ligase.
Excerpt: as §1, §2, §3, §4, §5, §6, §7, §8, §9, §10, §11, §12

The target of test [3] is T1, 4 ligases in the panel (D-Ala-D-Ala ligase).
T1 construct: rows headed: Ki's against 3 of the 4 ligases in the panel; other: text b65; 3 of the 4 ligases
Briefly: Ligase panel statements (ligases not individually named). Conditions: 3 of the 4 ligases; read-out: Ki's against 3 of the 4 ligases in the panel.
Excerpt: as §1, §2, §3
(§13) A 10 mM NADH (Sigma) stock solution was prepared freshly on the day of screening by dissolving 32 μmol NADH in 3.2 ml double-distilled water. The NADH solution was kept on ice. […]
(§14) Plots of reaction rates vs. inhibitor concentration were generated using Kaleidograph®, and Ki values were determined after the data was fitted to the proper equation.

Test [4] concerns the target T2, Strep ligase (D-Ala-D-Ala ligase) (Streptococcus pneumoniae serotype 4, UniProt P0CB57).
T2 sequence (P0CB57 1-347): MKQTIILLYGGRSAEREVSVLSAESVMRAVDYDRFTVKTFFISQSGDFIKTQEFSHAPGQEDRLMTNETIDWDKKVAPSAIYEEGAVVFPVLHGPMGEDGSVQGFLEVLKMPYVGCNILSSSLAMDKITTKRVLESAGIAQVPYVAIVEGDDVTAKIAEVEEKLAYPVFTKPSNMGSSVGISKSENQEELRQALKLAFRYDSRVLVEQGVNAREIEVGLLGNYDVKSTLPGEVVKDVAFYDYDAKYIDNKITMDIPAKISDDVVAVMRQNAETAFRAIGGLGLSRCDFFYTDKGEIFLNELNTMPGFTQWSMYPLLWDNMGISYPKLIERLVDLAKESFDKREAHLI
The test can be described thus: D-Ala-D-Ala ligase Ki determination (PK/LDH coupled assay), Strep ligase.
Excerpt: as §1, §2, §3, §4, §5, §6, §7, §8, §9, §10, §11, §12

Test [5] addresses Staph ligase (D-Ala-D-Ala ligase) (Staphylococcus aureus, UniProt Q5HEB7). Briefly: D-Ala-D-Ala ligase Ki determination (PK/LDH coupled assay), Staph ligase.
Excerpt: as §1, §2, §3, §4, §5, §6, §7, §8, §9, §10, §11, §12

The subject of test [6] is T3, 4 ligases in the panel (D-Ala-D-Ala ligase).
T3 construct: rows headed: ligase panel activity (in words); other: text b65
Briefly: Ligase panel statements (ligases not individually named).
Excerpt: as §1, §2, §3, §13, §14

Setting [7] is: E. coli ligase Ki/ATP (uM) avg, Table 3, Ki/ATP, avg.
Setting [8] is: Table 3, Ki/ATP, avg, read-out: H. Influenzae ligase Ki/ATP (uM) avg.
Where [9] appears, read: Table 3, Ki/ATP, avg, read-out: Strep ligase Ki/ATP (uM) avg.
Where [10] appears, read: Table 3, Ki/ATP, avg, read-out: Staph ligase Ki/ATP (uM) avg.
[11] abbreviates: E. coli ligase Ki/ATP (uM) avg, Table 5, Ki/ATP, avg.
Setting [12] is: Table 5, Ki/ATP, avg, read-out: H. Influenzae ligase Ki/ATP (uM) avg.
[13] abbreviates: Table 5, Ki/ATP, avg, read-out: Strep ligase Ki/ATP (uM) avg.
[14] abbreviates: Table 5, Ki/ATP, avg, read-out: Staph ligase Ki/ATP (uM) avg.

Where two headings read alike, the source gives them in different places.

Chain of Staph ligase (D-Ala-D-Ala ligase) (Q5HEB7 whole entry): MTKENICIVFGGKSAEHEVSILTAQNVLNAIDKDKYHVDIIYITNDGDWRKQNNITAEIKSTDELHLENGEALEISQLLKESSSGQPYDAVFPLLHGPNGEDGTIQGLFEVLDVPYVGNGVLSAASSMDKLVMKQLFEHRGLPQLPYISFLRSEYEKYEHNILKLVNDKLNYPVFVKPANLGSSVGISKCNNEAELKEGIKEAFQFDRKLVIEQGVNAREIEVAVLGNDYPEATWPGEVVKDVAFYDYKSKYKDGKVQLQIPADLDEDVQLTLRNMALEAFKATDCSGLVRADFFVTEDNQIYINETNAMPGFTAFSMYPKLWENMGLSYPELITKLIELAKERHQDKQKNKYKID
Chain of H. Influenzae ligase (D-Ala-D-Ala ligase) (P44405 whole entry): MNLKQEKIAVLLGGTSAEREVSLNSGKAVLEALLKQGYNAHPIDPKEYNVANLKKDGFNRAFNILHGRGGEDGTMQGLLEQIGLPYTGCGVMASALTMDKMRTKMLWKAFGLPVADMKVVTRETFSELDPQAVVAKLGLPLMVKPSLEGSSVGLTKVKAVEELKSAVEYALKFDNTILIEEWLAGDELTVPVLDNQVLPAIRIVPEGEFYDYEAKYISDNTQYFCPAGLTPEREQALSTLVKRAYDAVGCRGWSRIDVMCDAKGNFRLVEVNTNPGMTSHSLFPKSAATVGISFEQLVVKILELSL

As for `CCOc1ccc2ccccc2c1CN(CCC(=O)NCc1cccc(CN)c1)c1ncc2c(N)nc(N)nc2n1`, the Ki is 5.3 µM in test [1] (setting [7]); 0.4 µM in test [2] (setting [8]); under 1000 nM in test [3]; 0.9 µM in test [4] (setting [9]); 0.9 µM in test [5] (setting [10]).

Take `CCOc1ccc2ccccc2c1CN(CCC(=O)NCC(=N)N)c1ncc2c(N)nc(N)nc2n1`: the Ki in test [1] (setting [7]) was 1 µM; in test [2] (setting [8]), 0.6 µM; in test [4] (setting [9]) it was 1.4 µM; in test [5] (setting [10]), 6.3 µM. In test [6], the “ligase panel activity (in words)” value is given as “activity similar to that of the first compound”.

With `CCOc1ccc2ccccc2c1CN(CCC(=O)NCc1ccc(N)cc1)c1ncc2c(N)nc(N)nc2n1`, the Ki in test [1] (setting [7]) is 8.7 µM; in test [2] (setting [8]) it was 1.6 µM; in test [4] (setting [9]), 1.6 µM; in test [5] (setting [10]), 1.2 µM. Besides, the “ligase panel activity (in words)” value in test [6] was “potent against three ligase species”.

Consider `CCOc1ccc2ccccc2c1CN(CC(O)C(=O)O)c1ncc2c(N)nc(N)nc2n1` (stereo not drawn), for which the Ki is 0.143 µM in test [1] (E. coli ligase potency), 0.566 µM in test [2] (read-out: activity against H. influenzae (ligase)), 2.6 µM in test [4] (read-out: activity against Strep (ligase)) and 4.1 µM in test [5] (read-out: activity against Staph (ligase)).

`CCCN(c1ncc2c(N)nc(N)nc2n1)C(C)c1cccc2ccccc12` (stereo not drawn): the Ki in test [1] (setting [11]) was found to be 2 µM; in test [2] (setting [12]), 2.7 µM; in test [4] (setting [13]) it was 439 µM; in test [5] (setting [14]), 58 µM.

For the molecule `CC(c1cccc2ccccc12)N(CCCN)c1ncc2c(N)nc(N)nc2n1` (stereo not drawn), the Ki in test [1] (setting [11]) was 0.457 µM; in test [2] (setting [12]), 5.5 µM; in test [4] (setting [13]) it was 81.2 µM; in test [5] (setting [14]) it was 46 µM.

Consider `CCOc1ccc2ccccc2c1CN(CCCCN)c1ncc2c(N)nc(N)nc2n1` [N7-(4-Amino-butyl)-N-7-(2-ethoxynaphthalen-1-ylmethyl)-pyrimido[4,5-d]pyrimidine-2,4,7-triamine], for which the Ki in test [1] (setting [11]) was found to be 0.105 µM; in test [1] (Ki against the ligase isolated from E. coli) it was 0.102 µM; in test [2] (setting [12]), 0.52 µM; in test [4] (setting [13]), 4.5 µM; in test [5] (setting [14]) it was 15 µM.

Take `CC(c1cccc2ccccc12)N(CCCCN)c1ncc2c(N)nc(N)nc2n1` (stereo not drawn) [drawing 55]: the Ki in test [1] (setting [11]) is 0.135 µM; in test [2] (setting [12]), 4.2 µM; in test [4] (setting [13]) it was 23.1 µM; in test [5] (setting [14]), 32 µM.
